Laboratory results from paper PMC5218480 (PLoS ONE, 2017).

System: MV-4-11 cells
Test: Gene expression microarray analysis (Affymetrix PrimeView) and GSEA
Format: cell-based, human
Set-up: RFU PODN (11730768_x_at) / Fold change /veh PODN (11730768_x_at) / RFU LINC00158 (11744669_a_at) / Fold change /veh LINC00158 (11744669_a_at) / RFU DUSP10 (11751237_a_at) / Fold change /veh DUSP10 (11751237_a_at) / RFU ID3 (11757404_x_at) / Fold change /veh ID3 (11757404_x_at) / RFU PLEKHG5 (11737974_s_at) / Fold change /veh PLEKHG5 (11737974_s_at) / RFU LRRC4B (11730491_at) / Fold change /veh LRRC4B (11730491_at) / RFU GIMAP4 (11747438_a_at) / Fold change /veh GIMAP4 (11747438_a_at) / RFU KRT8 (11758183_x_at) / Fold change /veh KRT8 (11758183_x_at) / RFU CNN1 (11734310_a_at) / Fold change /veh CNN1 (11734310_a_at) / RFU VPS37D (11726825_at) / Fold change /veh VPS37D (11726825_at) / RFU C10orf10 (11716522_x_at) / Fold change /veh C10orf10 (11716522_x_at) / RFU KIR2DL2 /// KIR2DL4 /// KIR2DL5A /// KIR2DL5B /// KIR2DS1 /// KIR2DS2 /// KIR2DS3 /// KIR2DS4 /// KIR3DL3 /// KIR3DL3 /// KIR3DS1 (11738374_at) / Fold change /veh KIR2DL2 /// KIR2DL4 /// KIR2DL5A /// KIR2DL5B /// KIR2DS1 /// KIR2DS2 /// KIR2DS3 /// KIR2DS4 /// KIR3DL3 /// KIR3DL3 /// KIR3DS1 (11738374_at) / RFU C1QL1 (11718748_at) / Fold change /veh C1QL1 (11718748_at) / RFU TMPRSS4 (11747572_a_at) / Fold change /veh TMPRSS4 (11747572_a_at) / RFU HAMP (11756126_x_at) / Fold change /veh HAMP (11756126_x_at) / RFU RNFT2 (11725882_a_at) / Fold change /veh RNFT2 (11725882_a_at) / RFU NR4A2 (11747474_a_at) / Fold change /veh NR4A2 (11747474_a_at) / RFU ABCC12 (11746883_a_at) / Fold change /veh ABCC12 (11746883_a_at) / RFU TMEM136 (11760407_x_at) / Fold change /veh TMEM136 (11760407_x_at) / RFU CLDN22 /// WWC2 (11732394_at) / Fold change /veh CLDN22 /// WWC2 (11732394_at) / RFU HLA-DPB1 (11760878_x_at) / Fold change /veh HLA-DPB1 (11760878_x_at) / RFU SPINT1 (11716480_a_at) / Fold change /veh SPINT1 (11716480_a_at) / RFU GAP43 (11754022_s_at) / Fold change /veh GAP43 (11754022_s_at) / RFU A4GNT (11735810_at) / Fold change /veh A4GNT (11735810_at) / RFU PRB3 (11715151_x_at) / Fold change /veh PRB3 (11715151_x_at) / RFU TUBB4B (11761932_at) / Fold change /veh TUBB4B (11761932_at) / RFU CAPN14 (11732068_a_at) / Fold change /veh CAPN14 (11732068_a_at) / RFU TMCC2 (11721928_a_at) / Fold change /veh TMCC2 (11721928_a_at) / RFU IRGQ (11745062_a_at) / Fold change /veh IRGQ (11745062_a_at) / RFU FAM174B (11720279_a_at) / Fold change /veh FAM174B (11720279_a_at) / RFU TMPRSS4 (11748680_a_at) / Fold change /veh TMPRSS4 (11748680_a_at) / RFU FAM212B (11763350_a_at) / Fold change /veh FAM212B (11763350_a_at) / RFU PLEKHG5 (11743358_a_at) / Fold change /veh PLEKHG5 (11743358_a_at) / RFU ZSCAN30 (11745921_a_at) / Fold change /veh ZSCAN30 (11745921_a_at) / RFU CMKLR1 (11741424_a_at) / Fold change /veh CMKLR1 (11741424_a_at) / RFU LOC101060620 /// MAPK8IP1 (11723275_at) / Fold change /veh LOC101060620 /// MAPK8IP1 (11723275_at) / RFU SPTSSB (11747773_x_at) / Fold change /veh SPTSSB (11747773_x_at) / RFU PRSS12 (11739890_at) / Fold change /veh PRSS12 (11739890_at) / RFU BIN1 (11741810_x_at) / Fold change /veh BIN1 (11741810_x_at) / RFU WNT11 (11732464_a_at) / Fold change /veh WNT11 (11732464_a_at) / RFU C10orf10 (11716521_a_at) / Fold change /veh C10orf10 (11716521_a_at) / RFU C5orf56 (11738089_at) / Fold change /veh C5orf56 (11738089_at) / RFU CYB561 (11721691_x_at) / Fold change /veh CYB561 (11721691_x_at) / RFU ANKRD19P (11752326_a_at) / Fold change /veh ANKRD19P (11752326_a_at) / RFU OR2T12 /// OR2T33 /// OR2T8 (11738714_s_at) / Fold change /veh OR2T12 /// OR2T33 /// OR2T8 (11738714_s_at) / RFU VCAN (11748164_a_at) / Fold change /veh VCAN (11748164_a_at) / RFU JSRP1 (11732532_at) / Fold change /veh JSRP1 (11732532_at) / RFU KRTAP10-11 (11738290_x_at) / Fold change /veh KRTAP10-11 (11738290_x_at) / RFU MYO3A (11730013_a_at) / Fold change /veh MYO3A (11730013_a_at) / RFU EBF3 (11725865_a_at) / Fold change /veh EBF3 (11725865_a_at) / RFU CAMK2N1 (11719241_x_at) / Fold change /veh CAMK2N1 (11719241_x_at) / RFU C5orf56 (11738088_a_at) / Fold change /veh C5orf56 (11738088_a_at) / RFU OLFML3 (11715873_a_at) / Fold change /veh OLFML3 (11715873_a_at) / RFU LOC100653217 /// NTM (11731650_a_at) / Fold change /veh LOC100653217 /// NTM (11731650_a_at) / RFU MAPK11 (11762145_a_at) / Fold change /veh MAPK11 (11762145_a_at) / RFU FIZ1 (11724087_x_at) / Fold change /veh FIZ1 (11724087_x_at) / RFU OASL (11726364_x_at) / Fold change /veh OASL (11726364_x_at) / RFU SOX15 (11748057_x_at) / Fold change /veh SOX15 (11748057_x_at) / RFU CD79A (11719716_a_at) / Fold change /veh CD79A (11719716_a_at) / RFU HIST1H1D (11736915_at) / Fold change /veh HIST1H1D (11736915_at) / RFU CASKIN2 (11723855_a_at) / Fold change /veh CASKIN2 (11723855_a_at) / RFU LOC730098 (11760151_x_at) / Fold change /veh LOC730098 (11760151_x_at) / RFU OR4N2 (11742367_at) / Fold change /veh OR4N2 (11742367_at) / RFU PRRT2 (11749266_a_at) / Fold change /veh PRRT2 (11749266_a_at) / RFU SNX32 (11753110_a_at) / Fold change /veh SNX32 (11753110_a_at) / RFU CDHR5 (11726645_a_at) / Fold change /veh CDHR5 (11726645_a_at) / RFU RCAN1 (11760418_a_at) / Fold change /veh RCAN1 (11760418_a_at) / RFU FAM167A (11723789_a_at) / Fold change /veh FAM167A (11723789_a_at) / RFU FAM26E (11764081_at) / Fold change /veh FAM26E (11764081_at) / RFU ISYNA1 (11749810_s_at) / Fold change /veh ISYNA1 (11749810_s_at) / RFU ACY1 (11761880_at) / Fold change /veh ACY1 (11761880_at) / RFU 11764098_at / Fold change /veh 11764098_at / RFU SAMD14 (11745864_x_at) / Fold change /veh SAMD14 (11745864_x_at) / RFU NPB (11741838_a_at) / Fold change /veh NPB (11741838_a_at) / RFU TMPRSS6 (11731388_a_at) / Fold change /veh TMPRSS6 (11731388_a_at) / RFU KRTAP10-2 (11738614_at) / Fold change /veh KRTAP10-2 (11738614_at) / RFU ARHGAP8 /// PRR5-ARHGAP8 (11727945_x_at) / Fold change /veh ARHGAP8 /// PRR5-ARHGAP8 (11727945_x_at) / RFU KRTAP5-7 /// NADSYN1 (11734609_at) / Fold change /veh KRTAP5-7 /// NADSYN1 (11734609_at) / RFU RASL12 (11751679_a_at) / Fold change /veh RASL12 (11751679_a_at) / RFU CDKN2B (11736163_a_at) / Fold change /veh CDKN2B (11736163_a_at) / RFU PRF1 (11729649_at) / Fold change /veh PRF1 (11729649_at) / RFU, ZNF638 /// ZNF638-IT1 / Fold change vs veh, ZNF638 /// ZNF638-IT1 / RFU, PANK3 / Fold change vs veh, PANK3 / RFU, SH3YL1 / Fold change vs veh, SH3YL1 / RFU, ZEB2 / Fold change vs veh, ZEB2 / RFU, NRIP1 / Fold change vs veh, NRIP1 / RFU, PTTG1IP / Fold change vs veh, PTTG1IP / RFU, CAPN2 / Fold change vs veh, CAPN2 / RFU, MED14 / Fold change vs veh, MED14 / RFU, SNORA58 / Fold change vs veh, SNORA58 / RFU, C1orf63 / Fold change vs veh, C1orf63 / RFU, LRRFIP1 / Fold change vs veh, LRRFIP1 / RFU, NDUFAF7 / Fold change vs veh, NDUFAF7 / RFU, SLC12A2 / Fold change vs veh, SLC12A2 / RFU, IBTK / Fold change vs veh, IBTK / RFU, ESF1 / Fold change vs veh, ESF1 / Fold change vs veh, TMEM50B / RFU, TAOK1 / Fold change vs veh, TAOK1 / RFU, ACBD3 / Fold change vs veh, ACBD3 / RFU, TMA16 / Fold change vs veh, TMA16 / RFU, RWDD3 / Fold change vs veh, RWDD3 / RFU, BCAT1 / Fold change vs veh, BCAT1 / RFU, EDEM3 / Fold change vs veh, EDEM3 / RFU, TMEM33 / Fold change vs veh, TMEM33 / RFU, WDR75 / Fold change vs veh, WDR75 / RFU, AHCTF1 / Fold change vs veh, AHCTF1 / RFU, TFRC / Fold change vs veh, TFRC / RFU, ZDHHC17 / Fold change vs veh, ZDHHC17 / RFU, NOM1 / Fold change vs veh, NOM1 / RFU, ARL8B / Fold change vs veh, ARL8B / RFU, ZBTB11 / Fold change vs veh, ZBTB11 / RFU, TAMM41 / Fold change vs veh, TAMM41 / RFU, KIAA1704 /// LOC100996395 / Fold change vs veh, KIAA1704 /// LOC100996395 / RFU, ING1 / Fold change vs veh, ING1 / RFU, TRMT61B / Fold change vs veh, TRMT61B / RFU, FUBP3 / Fold change vs veh, FUBP3 / RFU, TP53 / Fold change vs veh, TP53 / RFU, TNKS2 / Fold change vs veh, TNKS2 / RFU, ZFP14 / Fold change vs veh, ZFP14 / RFU, ACTR2 / Fold change vs veh, ACTR2 / RFU, PPP3R1 / Fold change vs veh, PPP3R1 / RFU, PIK3R1 / Fold change vs veh, PIK3R1 / RFU, HNRNPA1 / Fold change vs veh, HNRNPA1 / RFU, RNF170 / Fold change vs veh, RNF170 / RFU, ZNF28 / Fold change vs veh, ZNF28 / RFU, RNGTT / Fold change vs veh, RNGTT / RFU, OGT / Fold change vs veh, OGT / RFU, BRD1 / Fold change vs veh, BRD1 / RFU, MARS / Fold change vs veh, MARS / RFU, ZNF655 / Fold change vs veh, ZNF655 / RFU, FAHD1 / Fold change vs veh, FAHD1 / RFU, BDP1 / Fold change vs veh, BDP1 / RFU, LRRCC1 / Fold change vs veh, LRRCC1 / RFU, ARID1A / Fold change vs veh, ARID1A / RFU, ZNF146 / Fold change vs veh, ZNF146 / RFU, ZNF330 / Fold change vs veh, ZNF330 / RFU, GPN3 / Fold change vs veh, GPN3 / RFU, C9orf123 / Fold change vs veh, C9orf123 / RFU, N4BP2L2 / Fold change vs veh, N4BP2L2 / RFU, ARFIP1 / Fold change vs veh, ARFIP1 / RFU, FAM179B / Fold change vs veh, FAM179B / RFU, BCL10 / Fold change vs veh, BCL10 / RFU, UHRF1BP1L / Fold change vs veh, UHRF1BP1L / RFU, BET1 / Fold change vs veh, BET1 / RFU, CNOT2 / Fold change vs veh, CNOT2 / RFU, ZNF268 / Fold change vs veh, ZNF268 / Fold change vs veh, ZNF507 / RFU, DGCR2 / Fold change vs veh, DGCR2 / RFU, WDSUB1 / Fold change vs veh, WDSUB1 / Fold change vs veh, HSP90B1 /// MIR3652 / RFU, ADSS / Fold change vs veh, ADSS / RFU, GK / Fold change vs veh, GK / RFU, ZNF148 / Fold change vs veh, ZNF148 / RFU, TAF9 / Fold change vs veh, TAF9 / RFU, SLC1A5 / Fold change vs veh, SLC1A5 / RFU, SLMO2 / Fold change vs veh, SLMO2 / RFU, ABCC4 / Fold change vs veh, ABCC4 / RFU, LOC101060439 /// RAP1B / Fold change vs veh, LOC101060439 /// RAP1B / RFU, RFX7 / Fold change vs veh, RFX7 / RFU, GTPBP10 / Fold change vs veh, GTPBP10 / RFU, CNEP1R1 / Fold change vs veh, CNEP1R1 / RFU, BIVM-ERCC5 /// ERCC5 / Fold change vs veh, BIVM-ERCC5 /// ERCC5 / RFU, ILF3 / Fold change vs veh, ILF3 / RFU 11762660_at / Fold change /veh 11762660_at / RFU VCAN (11757783_s_at) / Fold change /veh VCAN (11757783_s_at) / RFU DDX43 (11728927_at) / Fold change /veh DDX43 (11728927_at) / RFU KRT8 (11758188_x_at) / Fold change /veh KRT8 (11758188_x_at) / RFU NKD1 (11759106_at) / Fold change /veh NKD1 (11759106_at) / RFU SRD5A1 (11742802_a_at) / Fold change /veh SRD5A1 (11742802_a_at) / RFU TPSAB1 /// TPSB2 (11721975_s_at) / Fold change /veh TPSAB1 /// TPSB2 (11721975_s_at) / RFU GSTM3 (11746129_a_at) / Fold change /veh GSTM3 (11746129_a_at) / RFU IL23R (11737362_x_at) / Fold change /veh IL23R (11737362_x_at) / RFU TMEM51 (11727254_a_at) / Fold change /veh TMEM51 (11727254_a_at) / RFU PIWIL2 (11732686_x_at) / Fold change /veh PIWIL2 (11732686_x_at) / RFU ORM1 (11744905_x_at) / Fold change /veh ORM1 (11744905_x_at) / RFU CCDC152 (11743942_at) / Fold change /veh CCDC152 (11743942_at) / RFU ECM1 (11717891_a_at) / Fold change /veh ECM1 (11717891_a_at) / RFU IL23R (11748794_a_at) / Fold change /veh IL23R (11748794_a_at) / RFU TNFAIP8L3 (11732012_x_at) / Fold change /veh TNFAIP8L3 (11732012_x_at) / RFU MBOAT4 (11741988_at) / Fold change /veh MBOAT4 (11741988_at) / RFU 11764193_at / Fold change /veh 11764193_at / RFU TMEM53 (11763286_at) / Fold change /veh TMEM53 (11763286_at) / RFU MAGEB2 (11727129_at) / Fold change /veh MAGEB2 (11727129_at) / RFU TMEM200A (11744735_a_at) / Fold change /veh TMEM200A (11744735_a_at) / RFU CCDC152 (11751479_a_at) / Fold change /veh CCDC152 (11751479_a_at) / RFU FAM211A (11726209_a_at) / Fold change /veh FAM211A (11726209_a_at) / RFU RGS16 (11746705_a_at) / Fold change /veh RGS16 (11746705_a_at) / RFU VCAN (11755009_s_at) / Fold change /veh VCAN (11755009_s_at) / RFU RHOB (11743442_s_at) / Fold change /veh RHOB (11743442_s_at) / RFU RGS16 (11720943_a_at) / Fold change /veh RGS16 (11720943_a_at) / RFU RGS16 (11720944_at) / Fold change /veh RGS16 (11720944_at) / RFU, VPS4B / Fold change vs veh, VPS4B / RFU, CREB1 / Fold change vs veh, CREB1 / RFU, DNAJC13 / Fold change vs veh, DNAJC13 / RFU, GNAQ / Fold change vs veh, GNAQ / RFU, CDK5R1 / Fold change vs veh, CDK5R1 / RFU, ZRANB3 / Fold change vs veh, ZRANB3 / RFU, CUL4A / Fold change vs veh, CUL4A / RFU, CCNY / Fold change vs veh, CCNY / RFU, UFL1 / Fold change vs veh, UFL1 / RFU, COG3 / Fold change vs veh, COG3 / RFU, DIAPH2 / Fold change vs veh, DIAPH2 / RFU, SKA2 / Fold change vs veh, SKA2 / RFU, AFF3 / Fold change vs veh, AFF3 / RFU, LMF1 / Fold change vs veh, LMF1 / RFU, IPO11 / Fold change vs veh, IPO11 / RFU, DFFB / Fold change vs veh, DFFB / RFU, FOXP1 / Fold change vs veh, FOXP1 / RFU, CARD8 / Fold change vs veh, CARD8 / RFU, STRN3 / Fold change vs veh, STRN3 / RFU, ADK / Fold change vs veh, ADK / RFU, RASSF2 / Fold change vs veh, RASSF2 / RFU, WIPF1 / Fold change vs veh, WIPF1 / RFU, LARP1B / Fold change vs veh, LARP1B / RFU, RASA1 / Fold change vs veh, RASA1 / RFU, RB1 / Fold change vs veh, RB1 / RFU, PPFIA1 / Fold change vs veh, PPFIA1 / RFU, MAT2A / Fold change vs veh, MAT2A / RFU, CCT5 / Fold change vs veh, CCT5 / RFU, WDR92 / Fold change vs veh, WDR92 / RFU, CUX1 / Fold change vs veh, CUX1 / RFU, TTC7A / Fold change vs veh, TTC7A / RFU, TMEM135 / Fold change vs veh, TMEM135 / RFU, DEPTOR / Fold change vs veh, DEPTOR / RFU, CPM / Fold change vs veh, CPM / RFU, DNAJB6 / Fold change vs veh, DNAJB6 / RFU, CACNA2D3 / Fold change vs veh, CACNA2D3 / RFU, DTX4 / Fold change vs veh, DTX4 / RFU, TFCP2 / Fold change vs veh, TFCP2 / RFU, GMCL1 /// GMCL1P1 / Fold change vs veh, GMCL1 /// GMCL1P1 / RFU, AEBP2 / Fold change vs veh, AEBP2 / RFU, SNHG1 /// SNORD22 /// SNORD25 /// SNORD26 /// SNORD27 /// SNORD28 /// SNORD29 /// SNORD31 / Fold change vs veh, SNHG1 /// SNORD22 /// SNORD25 /// SNORD26 /// SNORD27 /// SNORD28 /// SNORD29 /// SNORD31 / Fold change (Aza/veh), C12orf56 (ProbeSet 11735607_a_at) / Fold change (ACY-1035/veh), C12orf56 (ProbeSet 11735607_a_at) / Fold change (Aza/veh), FGFR1OP (ProbeSet 11751329_s_at) / Fold change (ACY-1035/veh), FGFR1OP (ProbeSet 11751329_s_at) / Fold change (Aza/veh), VPS36 (ProbeSet 11739960_a_at) / Fold change (ACY-1035/veh), VPS36 (ProbeSet 11739960_a_at) / RFU SYPL1 (11715823_x_at) / Fold change /veh SYPL1 (11715823_x_at) / RFU IGFBP7 (11715501_s_at) / Fold change /veh IGFBP7 (11715501_s_at) / RFU REEP3 (11722064_at) / Fold change /veh REEP3 (11722064_at) / RFU IGLL1 (11728026_x_at) / Fold change /veh IGLL1 (11728026_x_at): dose or concentration left out as unconfirmed
Details: MV-4-11 cells, 48 hours

Nc1ccc(-c2cccs2)cc1NC(=O)c1ccc2c(c1)cc(C1CC1)n2CCN1CCOCC1 [ACY-1035]
Fold change /veh CNN1 (11734310_a_at): 1.19
